Results as given in US9663460B2, “Sulfur derivatives as chemokine receptor modulators” (ALLERGAN, INC., priority 2010, dated 2017).

Molecular target: CCR2 (Homo sapiens (Human), UniProt P41597)
Assay: Calcium activity assayed on the FLIPR Tetra in HEK-Gqi5 cells stably expressing CCR2
Type: cell-based
Settings: FLIPR Tetra calcium assay

Chain of CCR2 (P41597 whole entry, species assumed): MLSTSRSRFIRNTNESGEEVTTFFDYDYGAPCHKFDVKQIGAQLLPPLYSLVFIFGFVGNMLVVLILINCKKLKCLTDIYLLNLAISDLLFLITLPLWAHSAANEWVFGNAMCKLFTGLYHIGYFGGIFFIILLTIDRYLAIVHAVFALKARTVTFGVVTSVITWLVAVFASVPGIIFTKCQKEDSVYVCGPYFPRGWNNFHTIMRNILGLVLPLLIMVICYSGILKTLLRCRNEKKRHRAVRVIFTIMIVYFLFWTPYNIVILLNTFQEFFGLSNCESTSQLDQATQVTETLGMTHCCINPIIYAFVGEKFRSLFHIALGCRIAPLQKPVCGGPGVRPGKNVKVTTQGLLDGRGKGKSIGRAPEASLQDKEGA

SMILES | CCR2 % ANTAGONISM | IC50
O=S(=O)(Nc1cc(Cl)ccc1[S+]([O-])Cc1c[nH]cn1)c1cc2ccccc2o1 (centres unmarked) [N-{5-chloro-2-[(1H-imidazol-4-ylmethyl)sulfinyl]phenyl}-1-benzofuran-2-sulfonamide] | 108% | 296 nM
O=S(=O)(Cc1c[nH]cn1)c1ccc(Cl)cc1NS(=O)(=O)c1cc2ccccc2o1 [N-{5-chloro-2-[(1H-imidazol-4-ylmethyl)sulfonyl]phenyl}-1-benzofuran-2-sulfonamide] | 106% | 81 nM
O=S(=O)(Nc1cc(Cl)ccc1[S+]([O-])Cc1cc[nH]n1)c1cc2ccccc2o1 (centres unmarked) [N-{5-chloro-2-[(1H-pyrazol-3-ylmethyl)sulfinyl]phenyl}-1-benzofuran-2-sulfonamide] | 99% | 634 nM
O=S(=O)(Cc1cc[nH]n1)c1ccc(Cl)cc1NS(=O)(=O)c1cc2ccccc2o1 [N-{5-chloro-2-[(1H-pyrazol-3-ylmethyl)sulfonyl]phenyl}-1-benzofuran-2-sulfonamide] | 102% | 367 nM
O=S(=O)(Nc1cc(Cl)ccc1[S+]([O-])CCc1ccccn1)c1cc2ccccc2o1 (centres unmarked) [N-{5-chloro-2-[(2-pyridin-2-ylethyl)sulfinyl]phenyl}-1-benzofuran-2-sulfonamide] | 86% | 153 nM
O=S(=O)(CCc1ccccn1)c1ccc(Cl)cc1NS(=O)(=O)c1cc2ccccc2o1 [N-{5-chloro-2-[(2-pyridin-2-ylethyl)sulfonyl]phenyl}-1-benzofuran-2-sulfonamide] | 93% | 197 nM
O=S(=O)(Nc1cc(Cl)ccc1SCCc1ccccn1)c1cc2ccccc2o1 [N-{5-chloro-2-[(2-pyridin-2-ylethyl)thio]phenyl}-1-benzofuran-2-sulfonamide] | 84% | 713 nM
O=S(=O)(Nc1cc(Cl)ccc1[S+]([O-])Cc1cccc(O)c1)c1cc2ccccc2o1 (centres unmarked) [N-{5-chloro-2-[(3-hydroxybenzyl)sulfinyl]phenyl}-1-benzofuran-2-sulfonamide] | 103% | 112 nM
COc1cccc(CSc2ccc(Cl)cc2NS(=O)(=O)c2cc3ccccc3o2)c1 [N-{5-chloro-2-[(3-methoxybenzyl)thio]phenyl}-1-benzofuran-2-sulfonamide] | 85% | 651 nM
O=[N+]([O-])c1cccc(CSc2ccc(Cl)cc2NS(=O)(=O)c2cc3ccccc3o2)c1 [N-{5-chloro-2-[(3-nitrobenzyl)thio]phenyl}-1-benzofuran-2-sulfonamide] | 63% | 
O=[N+]([O-])c1ccc(CS(=O)(=O)c2ccc(Cl)cc2NS(=O)(=O)c2cc3ccccc3o2)cc1 [N-{5-chloro-2-[(4-nitrobenzyl)sulfonyl]phenyl}-1-benzofuran-2-sulfonamide] | 20% | 2160 nM
O=[N+]([O-])c1ccc(CSc2ccc(Cl)cc2NS(=O)(=O)c2cc3ccccc3o2)cc1 [N-{5-chloro-2-[(4-nitrobenzyl)thio]phenyl}-1-benzofuran-2-sulfonamide] | 82% | 147 nM
O=S(=O)(Nc1cc(Cl)ccc1[S+]([O-])Cc1ncccn1)c1cc2ccccc2o1 (centres unmarked) [N-{5-chloro-2-[(pyrimidin-2-ylmethyl)sulfinyl]phenyl}-1-benzofuran-2-sulfonamide] | 104% | 506 nM
O=S(=O)(Cc1ncccn1)c1ccc(Cl)cc1NS(=O)(=O)c1cc2ccccc2o1 [N-{5-chloro-2-[(pyrimidin-2-ylmethyl)sulfonyl]phenyl}-1-benzofuran-2-sulfonamide] | 104% | 151 nM
O=S(=O)(Nc1cc(Cl)ccc1SCc1ncccn1)c1cc2ccccc2o1 [N-{5-chloro-2-[(pyrimidin-2-ylmethyl)thio]phenyl}-1-benzofuran-2-sulfonamide] | 100% | 549 nM
O=S(=O)(Nc1cc(Cl)ccc1SC(F)(F)F)c1cc2ccccc2o1 [N-{5-chloro-2-[(trifluoromethyl)thio]phenyl}-1-benzofuran-2-sulfonamide] | 92% | 333 nM
O=[N+]([O-])c1cccc(C[S+]([O-])c2ccc(F)cc2NS(=O)(=O)c2cc3ccccc3o2)c1 (centres unmarked) [N-{5-fluoro-2-[(3-nitrobenzyl)sulfinyl]phenyl}-1-benzofuran-2-sulfonamide] | 96% | 314 nM
O=[N+]([O-])c1cccc(CS(=O)(=O)c2ccc(F)cc2NS(=O)(=O)c2cc3ccccc3o2)c1 [N-{5-fluoro-2-[(3-nitrobenzyl)sulfonyl]phenyl}-1-benzofuran-2-sulfonamide] | 81% | 693 nM
COc1ccc([S+]([O-])Cc2cccc([N+](=O)[O-])c2)c(NS(=O)(=O)c2cc3ccccc3o2)c1 (centres unmarked) [N-{5-methoxy-2-[(3-nitrobenzyl)sulfinyl]phenyl}-1-benzofuran-2-sulfonamide] | 84% | 845 nM
CCOC(=O)C[S+]([O-])c1ccc(Cl)cc1NS(=O)(=O)c1ccc(Cl)c(C(F)(F)F)c1 (centres unmarked) [ethyl {[4-chloro-2-({[4-chloro-3-(trifluoromethyl)phenyl]sulfonyl}amino)phenyl]sulfinyl}acetate] | 79% | 141 nM
COC(=O)CC[S+]([O-])c1ccc(Cl)cc1NS(=O)(=O)c1ccc(Cl)c(C(F)(F)F)c1 (centres unmarked) [methyl 3-{[4-chloro-2-({[4-chloro-3-(trifluoromethyl)phenyl]sulfonyl}amino)phenyl]sulfinyl}propanoate] | 82% | 108 nM
CC(C)(C)OC(=O)Nc1nc(C[S+]([O-])c2ccc(Cl)cc2NS(=O)(=O)c2cc3ccccc3o2)cs1 (centres unmarked) [tert-butyl {4-[({2-[(1-benzofuran-2-ylsulfonyl)amino]-4-chlorophenyl}sulfinyl)methyl]-1,3-thiazol-2-yl}carbamate] | 101% | 2400 nM
CC(C)(C)OC(=O)Nc1nc(CS(=O)(=O)c2ccc(Cl)cc2NS(=O)(=O)c2cc3ccccc3o2)cs1 [tert-butyl {4-[({2-[(1-benzofuran-2-ylsulfonyl)amino]-4-chlorophenyl}sulfonyl)methyl]-1,3-thiazol-2-yl}carbamate] | 72% | 
CC(C)(C)OC(=O)Nc1cc(CS(=O)(=O)c2ccc(Cl)cc2NS(=O)(=O)c2cc3ccccc3o2)cc[n+]1[O-] [tert-butyl {4-[({2-[(1-benzofuran-2-ylsulfonyl)amino]-4-chlorophenyl}sulfonyl)methyl]-1-oxidopyridin-2-yl}carbamate] | 29% | 2870 nM
CC(C)(C)OC(=O)Nc1cc(CS(=O)(=O)c2ccc(Cl)cc2NS(=O)(=O)c2cc3ccccc3o2)ccn1 [tert-butyl {4-[({2-[(1-benzofuran-2-ylsulfonyl)amino]-4-chlorophenyl}sulfonyl)methyl]pyridin-2-yl}carbamate] | 76% | 2260 nM

More lines, in order of falling IC50, values ahead:

CCR2 % ANTAGONISM | IC50 | SMILES
98% | 77 nM | O=S(=O)(Nc1cc(Cl)ccc1SCc1cccc(O)c1)c1cc2ccccc2o1 [N-{5-chloro-2-[(3-hydroxybenzyl)thio]phenyl}-1-benzofuran-2-sulfonamide]
100% | 76 nM | O=S(=O)(Nc1cc(Cl)ccc1[S+]([O-])Cc1cccnc1)c1cc2ccccc2o1 (centres unmarked) [N-{5-chloro-2-[(pyridin-3-ylmethyl)sulfinyl]phenyl}-1-benzofuran-2-sulfonamide]
95% | 75 nM | O=[N+]([O-])c1ccccc1C[S+]([O-])c1ccc(Cl)cc1NS(=O)(=O)c1cc2ccccc2o1 (centres unmarked) [N-{5-chloro-2-[(2-nitrobenzyl)sulfinyl]phenyl}-1-benzofuran-2-sulfonamide]
91% | 73 nM | O=S(=O)(Nc1cc(Cl)ccc1S(=O)(=O)C(F)(F)F)c1cc2ccccc2o1 [N-{5-chloro-2-[(trifluoromethyl)sulfonyl]phenyl}-1-benzofuran-2-sulfonamide]
96% | 56 nM | O=S(=O)(Cc1cccc(O)c1)c1ccc(Cl)cc1NS(=O)(=O)c1cc2ccccc2o1 [N-{5-chloro-2-[(3-hydroxybenzyl)sulfonyl]phenyl}-1-benzofuran-2-sulfonamide]
91% | 35 nM | O=S(=O)(Nc1cc(Cl)ccc1SCc1ccccn1)c1cc2ccccc2o1 [N-{5-chloro-2-[(pyridin-2-ylmethyl)thio]phenyl}-1-benzofuran-2-sulfonamide]
93% | 32 nM | O=S(=O)(Cc1cccnc1)c1ccc(Cl)cc1NS(=O)(=O)c1cc2ccccc2o1 [N-{5-chloro-2-[(pyridin-3-ylmethyl)sulfonyl]phenyl}-1-benzofuran-2-sulfonamide]
100% | 29 nM | O=S(=O)(Nc1cc(Cl)ccc1[S+]([O-])Cc1ccccn1)c1cc2ccccc2o1 (centres unmarked) [N-{5-chloro-2-[(pyridin-2-ylmethyl)sulfinyl]phenyl}-1-benzofuran-2-sulfonamide]
100% | 29 nM | O=S(=O)(Cc1ccccn1)c1ccc(Cl)cc1NS(=O)(=O)c1cc2ccccc2o1 [N-{5-chloro-2-[(pyridin-2-ylmethyl)sulfonyl]phenyl}-1-benzofuran-2-sulfonamide]
97% | 22 nM | O=S(=O)(Nc1cc(Cl)ccc1SCc1cccnc1)c1cc2ccccc2o1 [N-{5-chloro-2-[(pyridin-3-ylmethyl)thio]phenyl}-1-benzofuran-2-sulfonamide]
89% | 19 nM | O=S(=O)(Nc1cc(Cl)ccc1[S+]([O-])C(F)(F)F)c1cc2ccccc2o1 (centres unmarked) [N-{5-chloro-2-[(trifluoromethyl)sulfinyl]phenyl}-1-benzofuran-2-sulfonamide]
99% | 16 nM | O=S(=O)(Nc1cc(Cl)ccc1SCc1cc[nH]n1)c1cc2ccccc2o1 [N-{5-chloro-2-[(1H-pyrazol-3-ylmethyl)thio]phenyl}-1-benzofuran-2-sulfonamide]
100% | 10 nM | O=S(=O)(Nc1cc(Cl)ccc1SCc1c[nH]cn1)c1cc2ccccc2o1 [N-{5-chloro-2-[(1H-imidazol-4-ylmethyl)thio]phenyl}-1-benzofuran-2-sulfonamide]
